Source: PMC10426190 (Breast Cancer Research : BCR, 2023)
Where two headings read alike, the source gives them in different places.

Key:
[1] = system: GREB1, AGR3 transcription in T47D, EFM-19, HCC1500; test: ER pathway activity, RT-QPCR of GREB1 and AGR3; assay type: cell-based, human; settings: 1 μM, 1 nM E2, 24 h
Experimental: HCC1500, T47D, and EFM-19 were cultured in hormone deprivation media with 10% charcoal-stripped FBS for at least 3 days before assay. Trypsinized cells were seeded in a 12-well plate, stimulated with 1 nM E2, and treated with/without 1 μM compounds for 24 h. Total RNA was extracted using QIAGEN RNeasy Plus Mini Kit (Qiagen), according to the manufacturer’s protocol. The concentration of RNA samples was determined using NanoDrop 8000 (Thermo Scientific). SYBR Green expression assay (Qiagen#204154) was used to quantify GREB1 (Forward primer: […]; reverse primer: […]), AGR3 (Forward primer: […]; reverse primer: […]) and the house-keeping genes actin (OriGene#HP204660). The relative quantities were determined using ΔΔ threshold cycle (ΔΔCt), according to the manufacturer’s instructions (Applied Biosystems).
MCF7 with hormone-deprived pre-treatment were administrated ER ligands or not present with 1 nM E2 stimulation for 24 h incubation in a 12-well plate. Total mRNA was isolated from treated cells and sequenced on an Illumina HiSeq X Ten platform. FPKM of each gene was calculated using Cufflinks and Differential expression genes analysis by using the DESeq (2012) R package. Four separate clusters were obtained. […] Endometrial height was assessed from the basement membrane to the luminal border (scale bar in green lines: 200 μm), Arrows indicate the uterine epithelium (e).

ERα Y537S mutant = biological target: T1, ERα Y537S mutant (Homo sapiens, UniProt P03372, Y537S); test: ERα degradation assay, In-Cell Western, MCF-7 Y537S; assay type: cell-based; settings: 24 h
T1 construct: MCF-7 wild type and Y537S mutant cells were seeded; host or cells: MCF7 expressing ER Y537S
T1 sequence (P03372 1-595 Y537S): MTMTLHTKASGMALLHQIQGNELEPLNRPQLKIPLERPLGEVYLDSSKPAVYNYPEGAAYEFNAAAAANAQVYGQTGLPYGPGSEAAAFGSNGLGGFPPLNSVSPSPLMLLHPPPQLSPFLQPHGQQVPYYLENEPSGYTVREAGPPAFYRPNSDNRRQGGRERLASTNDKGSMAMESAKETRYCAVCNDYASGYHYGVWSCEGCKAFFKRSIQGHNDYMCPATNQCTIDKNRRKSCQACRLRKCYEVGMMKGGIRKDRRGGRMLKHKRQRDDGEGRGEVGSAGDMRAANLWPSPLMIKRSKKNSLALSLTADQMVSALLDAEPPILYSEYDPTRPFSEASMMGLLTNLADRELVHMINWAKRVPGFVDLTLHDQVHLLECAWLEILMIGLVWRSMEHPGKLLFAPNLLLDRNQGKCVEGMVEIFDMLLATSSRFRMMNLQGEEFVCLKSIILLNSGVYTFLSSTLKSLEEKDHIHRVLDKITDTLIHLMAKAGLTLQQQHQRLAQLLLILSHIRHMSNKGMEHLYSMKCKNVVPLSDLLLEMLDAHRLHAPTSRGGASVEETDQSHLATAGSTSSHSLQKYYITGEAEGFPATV
Experimental: MCF-7 wild type and Y537S mutant cells were seeded at a density of 5000 cells per well into flat clear bottom tissue cultured-treated 384-well plates (Greiner) in culture media and after overnight incubation cells were treated with compounds for 24 h. Then plates were fixed with 4% formaldehyde, permeabilized with ice-cold methanol, and blocked with Odyssey Blocking Buffer (LI-COR). The fixed cells were incubated with rabbit anti- ERα antibody (CST#8644S) and mouse anti-GAPDH antibody (Abcam #ab8245), washed and stained with IRDye 800 Goat anti-Rabbit IgG (Licor#926-32211) and IRDye 680 Goat anti-Mouse IgG (Licor#926-68070). ERα levels were quantitated using Sapphire RGBNIR (Azure), the acumen eX3 imaging system. […] IC50 and Emax were analyzed with IDBS XLfit.

[2] = system: MCF-7 subcutaneous tumors; test: MCF-7 subcutaneous xenograft mouse model; assay type: in vivo; settings: MCF7 sc, 250 mg/kg subcutaneous once a week
Experimental: (§1) Female Balb/c nude mice were used for MCF-7 and T47D tumor subcutaneous xenograft studies. At least one day before tumor cell implantation, estrogen pellets (0.18 mg, 17β-Estradiol, 60-day release, Innovative Research of America, Sarasota, FL, USA) were implanted subcutaneously. Each mouse was subcutaneously injected with 1 × 10^7 MCF-7 (ECACC) or T47D cells in the right flank, and tumor growth was monitored. The long diameter (a) and the short diameter (b) of the tumor were measured using a caliper, and the tumor volume was calculated using the following formula: V = 0.5 × a × b^2. […] Tumor volumes were evaluated twice per week. Treatment tolerability was assessed by body weight measurements and frequent observation for clinical signs of treatment-related adverse effects.
(§2) Statistical and graphical presentations were performed using IDBS XLfit and GraphPad Prism 9. For cell proliferation assays, the IC50 was calculated by fitting a dose–response curve using a nonlinear regression model with a log(inhibitor) vs response curve fit. […] P-values < 0.05 were considered statistically significant.

T47D subcutaneous tumors = test: T47D subcutaneous xenograft mouse model; assay type: in vivo; settings: T47D sc, 250 mg/kg subcutaneous once a week
Experimental: as §1, §2

advanced breast cancer = settings: cited from earlier work; for PFS: second-line
[3] = system: advanced HR + /HER2- breast cancer; settings: cited from earlier work

SMILES | AGR3 transcription ([1]; EFM-19 and HCC1500) | ERα degradation assay Dmax [% Ful.] (ERα Y537S mutant) | ERα degradation assay Dmax [% Veh.] (ERα Y537S mutant) | AGR3 and GREB1 transcription ([1]; T47D, EFM-19, and HCC1500) | TGI [2] | TGI (T47D subcutaneous tumors) | OS (advanced breast cancer; 250 mg dose regimen ref 16) | OS (advanced breast cancer; Fulvestrant HD 500 mg ref 16) | PFS (advanced breast cancer; higher value of 6.5 vs. 5.5 (Fulvestrant HD 500 mg) ref 16) | PFS (advanced breast cancer; lower value of 6.5 vs. 5.5 (250 mg dose regimen) ref 16) | median OS [3] | PFS ([3]; progressed on prior ET ref 45)
CC/C(=C(\c1ccc(O)cc1)c1ccc(OCCN(C)C)cc1)c1ccccc1 [4-OH-tamoxifen] | significant increase | – | – | – | – | – | – | – | – | – | – | –
C[C@]12CC[C@@H]3c4ccc(O)cc4C[C@@H](CCCCCCCCC[S+]([O-])CCCC(F)(F)C(F)(F)F)[C@H]3[C@@H]1CC[C@@H]2O (stereo partly drawn) [Fulvestrant] | – | 87.09 % Ful. | 26.38 % Veh. | significantly downregulated | 28.84% | 48.35% | 22.3 months | 26.4 months | 6.5 months | 5.5 months | 29.7 months | 4.6 months
